Laboratory results as given in PubChem BioAssay (NCI).
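Cells were grown in 96-well plates and exposed to each compound for 48 hours at five concentrations; endpoints were interpolated linearly between bracketing concentrations, or set to the highest concentration if not reached. Definition used: TGI = concentration required for complete inhibition of growth.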

Tested on: 786-0 renal
Assay: NCI tumour cell line growth inhibition, 48 h

`O=C1CN2CCN(CC2)CC(=O)Nc2ccc(cc2)S(=O)(=O)c2ccc(cc2)NC(=O)CN2CCN(CC2)CC(=O)Nc2ccc(cc2)S(=O)(=O)c2ccc(cc2)N1` showed a TGI of over 100 µM.
